According to PubChem BioAssay (NCI):
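Tested at 5 concentrations; 48 h exposure; 96-well plates; endpoints linearly interpolated, else capped at highest concentration. TGI marks complete inhibition of growth.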

How the values were obtained:
Experiment in all cases: growth of human tumour cells (NCI), 48 h
HCT-116 colon = test system: HCT-116 colon
LOX IMVI melanoma = test system: LOX IMVI melanoma
NCI-H460 lung = test system: NCI-H460 lung
PC-3 prostate = test system: PC-3 prostate
SF-295 CNS = test system: SF-295 CNS
SK-MEL-5 melanoma = test system: SK-MEL-5 melanoma
SNB-19 CNS = test system: SNB-19 CNS
SW-620 colon = test system: SW-620 colon
UACC-62 melanoma = test system: UACC-62 melanoma
SF-539 CNS = test system: SF-539 CNS

Compound | TGI (HCT-116 colon) | TGI (LOX IMVI melanoma) | TGI (NCI-H460 lung) | TGI (PC-3 prostate) | TGI (SF-295 CNS) | TGI (SK-MEL-5 melanoma) | TGI (SNB-19 CNS) | TGI (SW-620 colon) | TGI (UACC-62 melanoma) | TGI (SF-539 CNS)
C[C@]12CC[C@@H]3c4ccc(OC(=O)c5ccccc5)cc4CC[C@H]3[C@@H]1CC[C@@H]2Oc1c2ccccc2nc2ccccc12 | 18 µM | 15.6 µM | 17.1 µM | 17.7 µM | > 50 µM | 18.5 µM | 15.5 µM | > 50 µM | > 50 µM | –
Cn1cnc2c(sc3nc4ccccc4n32)c1=N | > 100 µM | > 100 µM | – | > 100 µM | > 100 µM | > 100 µM | > 100 µM | > 100 µM | > 100 µM | > 100 µM
CN(C)CCCOCCn1c2c(c3ccccc31)CCCC2 | 28.8 µM | 31.5 µM | 28.9 µM | 32.6 µM | 40.1 µM | 25.3 µM | – | 37.5 µM | 31.1 µM | 33.2 µM
N#CC(NNC(=O)c1ccccc1O)c1cccc(O)c1 (stereo not drawn) | > 100 µM | > 100 µM | > 100 µM | – | > 100 µM | > 100 µM | – | > 100 µM | – | 18.5 µM
Cc1ccc(S(=O)(=O)c2c(O)c3ccccc3n(C)c2=O)cc1 | > 100 µM | – | > 100 µM | > 100 µM | > 100 µM | > 100 µM | > 100 µM | > 100 µM | > 100 µM | > 100 µM
CCOc1cc(C2CC(c3ccc(NS(=O)(=O)c4cc([N+](=O)[O-])ccc4C)cc3)=NN2)ccc1O (stereo not drawn) | 50.6 µM | 53 µM | – | > 100 µM | – | 37.8 µM | > 100 µM | > 100 µM | 30.3 µM | > 100 µM
CC(=O)c1cc2ccccc2n(O)c1=N | > 100 µM | > 100 µM | > 100 µM | > 100 µM | > 100 µM | > 100 µM | – | – | > 100 µM | > 100 µM
O=S1(=O)c2ccccc2NC(=S)CC1c1ccccc1 (stereo not drawn) | > 100 µM | > 100 µM | > 100 µM | > 100 µM | 79.8 µM | > 100 µM | > 100 µM | – | > 100 µM | –
CC(=O)Oc1ccc(C2COc3cc(OC(C)=O)c(OC(C)=O)cc3C2)cc1 (stereo not drawn) | 33.9 µM | > 55.5 µM | 47.3 µM | – | 58.5 µM | 6.63 µM | > 100 µM | 35.9 µM | 24.2 µM | 40.2 µM
CCCCOCn1c(=O)[nH]c(=O)c2cc(Br)ccc21 | > 100 µM | > 100 µM | – | > 100 µM | > 100 µM | > 100 µM | > 100 µM | > 100 µM | > 100 µM | > 100 µM
COC(=O)C1(Cc2ccccc2)Cc2ccccc2C1 | 49.8 µM | 88 µM | 84.9 µM | > 100 µM | 99.2 µM | 31.9 µM | – | > 100 µM | 75.6 µM | > 100 µM
CSc1c(C#N)c2n(c3ccccc13)c1ccccc1[n+]2C | 40.8 µM | > 100 µM | > 100 µM | 78.5 µM | > 100 µM | 26.7 µM | – | > 100 µM | 47.1 µM | 78.8 µM
